Test results as given in patent US20250230193A1, “CYCLIC COMPOUND HAVING SELECTIVE KRAS INHIBITORY EFFECT ON HRAS AND NRAS” (CHUGAI SEIYAKU KABUSHIKI KAISHA, priority 2022, published 2025).

Key:
[1] = target: GDP-bound NRAS wild-type protein (Homo sapiens, UniProt P01111); experiment: Binding to NRAS by surface plasmon resonance (SPR), Single Cycle Kinetics; conditions: GDP-bound NRAS wild-type vs GDP-bound KRAS wild-type, SPR
[2] = target: GDP-bound HRAS wild-type protein (Homo sapiens, UniProt P01112); experiment: Binding to HRAS by surface plasmon resonance (SPR), Single Cycle Kinetics; conditions: GDP-bound HRAS wild-type vs GDP-bound KRAS wild-type, SPR
Sequence of GDP-bound HRAS wild-type protein (P01112 whole entry): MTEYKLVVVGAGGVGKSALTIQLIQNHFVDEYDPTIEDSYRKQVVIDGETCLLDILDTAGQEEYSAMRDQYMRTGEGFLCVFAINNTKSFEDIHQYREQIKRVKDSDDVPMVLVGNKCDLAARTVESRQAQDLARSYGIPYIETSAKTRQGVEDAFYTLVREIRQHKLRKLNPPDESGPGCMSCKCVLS

Sequence of GDP-bound NRAS wild-type protein (P01111 whole entry): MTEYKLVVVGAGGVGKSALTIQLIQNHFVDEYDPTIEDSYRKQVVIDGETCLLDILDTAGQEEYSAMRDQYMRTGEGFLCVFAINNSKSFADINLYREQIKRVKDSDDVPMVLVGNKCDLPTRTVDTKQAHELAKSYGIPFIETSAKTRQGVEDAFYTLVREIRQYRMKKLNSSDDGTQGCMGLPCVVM

SMILES | NRAS/KRAS (ratio of KD value for NRAS to KD value for KRAS) [1] | HRAS/KRAS (ratio of KD value for HRAS to KD value for KRAS) [2] | NRAS/KRAS (ratio of KD value with respect to NRAS to KD value with respect to KRAS) [1] | HRAS/KRAS (ratio of KD value with respect to HRAS to KD value with respect to KRAS) [2]
CCCN(C)C(=O)[C@@H]1CC(=O)N(C)[C@@H](CC(F)F)C(=O)N[C@@H]([C@@H](C)CC)C(=O)N(C)CC(=O)N(C)[C@H]2C/C=C\CCN(C2=O)[C@@H](Cc2ccc(C(F)(F)F)cc2)C(=O)N(C)CC(=O)N[C@@H](CCc2cc(F)c(C(F)(F)F)c(F)c2)C(=O)N2C[C@H](OCC)C[C@H]2C(=O)NC2(CC(C)(C)C2)C(=O)N(C)[C@@H](C2CCCC2)C(=O)N1C [PP2030] | A (a compound having 10 or more and less than 20 is denoted as A) | A (a compound having 10 or more and less than 20 is denoted as A) | – | –
CCCN(C)C(=O)[C@@H]1CC(=O)N(C)[C@@H](COCC)C(=O)N[C@@H]([C@@H](C)CC)C(=O)N(C)CC(=O)N(C)[C@H]2C/C=C\CCN(C2=O)[C@@H](Cc2ccc(C(F)(F)F)cc2)C(=O)N(C)CC(=O)N[C@@H](CCc2cc(F)c(C(F)(F)F)c(F)c2)C(=O)N2C[C@H](OCC)C[C@H]2C(=O)NC2(CC(C)(C)C2)C(=O)N(C)[C@@H](C2CCCC2)C(=O)N1C [PP2031] | B (a compound having 3 or more and less than 10 is denoted as B) | B (a compound having 3 or more and less than 10 is denoted as B) | – | –
CCOC[C@H]1C(=O)N[C@@H]([C@@H](C)CC)C(=O)N(C)CC(=O)N(C)[C@H]2C/C=C\CCN(C2=O)[C@@H](Cc2ccc(C(F)(F)F)cc2)C(=O)N(C)CC(=O)N[C@@H](CCc2cc(F)c(C(F)(F)F)c(F)c2)C(=O)N2C[C@H](OCC)C[C@H]2C(=O)NC2(CC(C)(C)C2)C(=O)N(C)[C@@H](C2CCCC2)C(=O)N(C)[C@H](C(=O)N(C)CC)CC(=O)N1C [PP2032] | A (a compound having 10 or more and less than 20 is denoted as A) | B (a compound having 3 or more and less than 10 is denoted as B) | – | –
CCO[C@@H]1C[C@H]2C(=O)NC3(CC(C)(C)C3)C(=O)N(C)[C@@H](C3CCCC3)C(=O)N(C)[C@H](C(=O)N(C)CC)CC(=O)N(C)[C@@H](C(C)C)C(=O)N[C@@H]([C@@H](C)CC)C(=O)N(C)CC(=O)N(C)[C@H]3C/C=C\CCN(C3=O)[C@@H](Cc3ccc(C(F)(F)F)cc3)C(=O)N(C)CC(=O)N[C@@H](CCc3cc(F)c(C(F)(F)F)c(F)c3)C(=O)N2C1 [PP2034] | – | – | A (a compound having 10 or more and less than 20 is denoted as A) | A (a compound having 10 or more and less than 20 is denoted as A)
CCO[C@@H]1C[C@H]2C(=O)NC3(CC(C)(C)C3)C(=O)N(C)[C@@H](C3CCCC3)C(=O)N(C)[C@H](C(=O)N(C)CC)CC(=O)N(C)[C@@H](C3CC3)C(=O)N[C@@H]([C@@H](C)CC)C(=O)N(C)CC(=O)N(C)[C@H]3C/C=C\CCN(C3=O)[C@@H](Cc3ccc(C(F)(F)F)cc3)C(=O)N(C)CC(=O)N[C@@H](CCc3cc(F)c(C(F)(F)F)c(F)c3)C(=O)N2C1 [PP2036] | – | – | A (a compound having 10 or more and less than 20 is denoted as A) | A (a compound having 10 or more and less than 20 is denoted as A)
CCCN(C)C(=O)[C@@H]1CC(=O)N(C)[C@@H](C2CC2)C(=O)N[C@@H]([C@@H](C)CC)C(=O)N(C)CC(=O)N(C)[C@H]2C/C=C\CCN(C2=O)[C@@H](Cc2ccc(C(F)(F)F)cc2)C(=O)N(C)CC(=O)N[C@@H](CCc2cc(F)c(C(F)(F)F)c(F)c2)C(=O)N2C[C@H](OCC)C[C@H]2C(=O)NC2(CC(C)(C)C2)C(=O)N(C)[C@@H](C2CCCC2)C(=O)N1C [PP2037] | – | – | A (a compound having 10 or more and less than 20 is denoted as A) | A (a compound having 10 or more and less than 20 is denoted as A)
CCO[C@@H]1C[C@H]2C(=O)NC3(CC(C)(C)C3)C(=O)N(C)[C@@H](C3CCCC3)C(=O)N(C)[C@H](C(=O)N(C)CC)CC(=O)N(C)[C@@H](C3CCC3)C(=O)N[C@@H]([C@@H](C)CC)C(=O)N(C)CC(=O)N(C)[C@H]3C/C=C\CCN(C3=O)[C@@H](Cc3ccc(C(F)(F)F)cc3)C(=O)N(C)CC(=O)N[C@@H](CCc3cc(F)c(C(F)(F)F)c(F)c3)C(=O)N2C1 [PP2038] | – | – | A (a compound having 10 or more and less than 20 is denoted as A) | A (a compound having 10 or more and less than 20 is denoted as A)
CCCN(C)C(=O)[C@@H]1CC(=O)N(C)[C@@H](CC(F)F)C(=O)N[C@@H]([C@@H](C)CC)C(=O)N(C)CC(=O)N(C)[C@H]2C/C=C\CCN(C2=O)[C@@H](Cc2ccc(C(F)(F)F)cc2)C(=O)N(C)CC(=O)N[C@@H](CCc2cc(F)c(C(F)(F)F)c(F)c2)C(=O)N2C[C@@H](C)C[C@H]2C(=O)NC2(CC(C)(C)C2)C(=O)N(C)[C@@H](C2CCCC2)C(=O)N1C [PP2040] | – | – | A (a compound having 10 or more and less than 20 is denoted as A) | A (a compound having 10 or more and less than 20 is denoted as A)
CCCN(C)C(=O)[C@@H]1CC(=O)N(C)[C@@H](COCC)C(=O)N[C@@H]([C@@H](C)CC)C(=O)N(C)CC(=O)N(C)[C@H]2C/C=C\CCN(C2=O)[C@@H](Cc2ccc(C(F)(F)F)cc2)C(=O)N(C)CC(=O)N[C@@H](CCc2cc(F)c(C(F)(F)F)c(F)c2)C(=O)N2C[C@@H](C)C[C@H]2C(=O)NC2(CC(C)(C)C2)C(=O)N(C)[C@@H](C2CCCC2)C(=O)N1C [PP2041] | – | – | A (a compound having 10 or more and less than 20 is denoted as A) | A (a compound having 10 or more and less than 20 is denoted as A)
CCOC[C@H]1C(=O)N[C@@H]([C@@H](C)CC)C(=O)N(C)CC(=O)N(C)[C@H]2C/C=C\CCN(C2=O)[C@@H](Cc2ccc(C(F)(F)F)cc2)C(=O)N(C)CC(=O)N[C@@H](CCc2cc(F)c(C(F)(F)F)c(F)c2)C(=O)N2C[C@@H](C)C[C@H]2C(=O)NC2(CC(C)(C)C2)C(=O)N(C)[C@@H](C2CCCC2)C(=O)N(C)[C@H](C(=O)N(C)CC)CC(=O)N1C [PP2042] | – | – | A (a compound having 10 or more and less than 20 is denoted as A) | A (a compound having 10 or more and less than 20 is denoted as A)
CCCOC[C@H]1C(=O)N[C@@H]([C@@H](C)CC)C(=O)N(C)CC(=O)N(C)[C@H]2C/C=C\CCN(C2=O)[C@@H](Cc2ccc(C(F)(F)F)cc2)C(=O)N(C)CC(=O)N[C@@H](CCc2cc(F)c(C(F)(F)F)c(F)c2)C(=O)N2C[C@@H](C)C[C@H]2C(=O)NC2(CC(C)(C)C2)C(=O)N(C)[C@@H](C2CCCC2)C(=O)N(C)[C@H](C(=O)N(C)CC)CC(=O)N1C [PP2043] | – | – | A (a compound having 10 or more and less than 20 is denoted as A) | A (a compound having 10 or more and less than 20 is denoted as A)
CCO[C@@H]1C[C@H]2C(=O)NC3(CC(C)(C)C3)C(=O)N(C)[C@@H](C3CCCC3)C(=O)N(C)[C@H](C(=O)N(C)CC)CC(=O)N(C)[C@@H](CC(C)C)C(=O)N[C@@H]([C@@H](C)CC)C(=O)N(C)CC(=O)N(C)[C@H]3C/C=C\CCN(C3=O)[C@@H](Cc3ccc(C(F)F)cc3)C(=O)N(C)CC(=O)N[C@@H](CCc3cc(F)c(C(F)(F)F)c(F)c3)C(=O)N2C1 [PP2046] | – | – | A (a compound having 10 or more and less than 20 is denoted as A) | A (a compound having 10 or more and less than 20 is denoted as A)
CCO[C@@H]1C[C@H]2C(=O)NC3(CC(C)(C)C3)C(=O)N(C)[C@@H](C3CCCC3)C(=O)N(C)[C@H](C(=O)N(C)C)CC(=O)N(C)[C@@H](CC)C(=O)N[C@@H]([C@@H](C)CC)C(=O)N(C)CC(=O)N(C)[C@H]3C/C=C\CCN(C3=O)[C@@H](Cc3ccc(Cl)cc3F)C(=O)N(C)CC(=O)N[C@@H](CCc3cc(F)c(C(F)(F)F)c(F)c3)C(=O)N2C1 [PP2048] | – | – | A (a compound having 10 or more and less than 20 is denoted as A) | B (a compound having 3 or more and less than 10 is denoted as B)
CCO[C@@H]1C[C@H]2C(=O)NC3(CC(C)(C)C3)C(=O)N(C)[C@@H](C3CCCC3)C(=O)N(C)[C@H](C(=O)N(C)C)CC(=O)N(C)[C@@H](CC)C(=O)N[C@@H]([C@@H](C)CC)C(=O)N(C)CC(=O)N(C)[C@H]3C/C=C\CCN(C3=O)[C@@H](Cc3ccc(C(F)F)cc3)C(=O)N(C)CC(=O)N[C@@H](CCc3cc(F)c(C(F)(F)F)c(F)c3)C(=O)N2C1 [PP2049] | – | – | A (a compound having 10 or more and less than 20 is denoted as A) | B (a compound having 3 or more and less than 10 is denoted as B)
C=CCN1CC(=O)N(C)[C@H]2C/C=C\CCN(C2=O)[C@@H](Cc2ccc(C)cc2)C(=O)N(C)CC(=O)N[C@@H](CCc2cc(F)c(C(F)(F)F)c(F)c2)C(=O)N2C[C@H](OCC)C[C@H]2C(=O)NC2(CC(C)(C)C2)C(=O)N(C)[C@@H](C2CCCC2)C(=O)N(C)[C@H](C(=O)N(C)C)CC(=O)N(C)[C@@H](CC(C)C)C(=O)N[C@@H]([C@@H](C)CC)C1=O [PP2050] | – | – | A (a compound having 10 or more and less than 20 is denoted as A) | A (a compound having 10 or more and less than 20 is denoted as A)
C#CC[C@H]1C(=O)N[C@@H]([C@@H](C)CC)C(=O)N(C)CC(=O)N(C)[C@H]2C/C=C\CCN(C2=O)[C@@H](Cc2ccc(C(F)(F)F)cc2)C(=O)N(C)CC(=O)N[C@@H](CCc2ccc(C(F)(F)F)c(OC)c2)C(=O)N2C[C@H](OCC)C[C@H]2C(=O)NC2(CC(C)(C)C2)C(=O)N(C)[C@@H](C2CCCC2)C(=O)N(C)[C@H](C(=O)N(C)CC)CC(=O)N1C [PP2051] | – | – | A (a compound having 10 or more and less than 20 is denoted as A) | A (a compound having 10 or more and less than 20 is denoted as A)
